These results are taken from patent US10407395B2, “Benzimidazole compound and medical use thereof” (Sumitomo Dainippon Pharma Co., Ltd., priority 2015, dated 2019).

Experiment [1] deals with rats streptozotocin (STZ)-induced diabetic peripheral neuropathy model. The experiment in a line: Evaluation of analgesic effect (von Frey test) in streptozotocin-induced diabetic peripheral neuropathy model. The experiment is classed as in vivo, rat. The settings on record: male Wistar rats, 3 mg/kg of body weight, orally, one hour before measuring. As to the method:
Test (2) Evaluation of Analgesic Effect in Streptozotocin-Induced Diabetic Peripheral Neuropathy Models
Using some typical compounds among the compounds of the present invention, the inhibitory effect for neuropathic pain was determined through the evaluation of analgesic effect in rats streptozotocin (STZ)-induced diabetic peripheral neuropathy model.
The disease animal model was prepared by means of a partially-modified method of Fox et al. (Pain 81, 307-316, 1999). STZ was intraperitoneally administered to 9-week old male Wistar rats in 45 mg/kg of body weight to prepare animal model suffering from diabetic peripheral neuropathy. The analgesic effect was evaluated by von Frey test. Specifically, mechanical sensitivity was measured by applying hairs (von Frey hair) to the plantar surface of the animal's hind paw, and then the reaction thresholds (50% paw withdrawal thresholds) for the mechanical stimulation was determined by using a formula based on Chaplan et al. (Journal of Neuroscience Methods 53, 55-63, 1994).
One and two days before evaluating the test compounds, the reaction thresholds were measured to obtain an average thereof, and the average value was used as a reference value obtained before the test compounds would be administered.
In order to reduce the variations of the averaged values among the test groups and the measured values in each group, the animals were divided into 4 to 5 groups.
In the evaluation test of the test compounds, the reaction thresholds were measured after administering each test compound. One hour before measuring the reaction thresholds, each test compound was administered in 3 mg/kg of body weight. The strength of analgesic effect of each test compound is expressed as the extension width (g) of reaction thresholds which is obtained by the calculation formula of (reaction threshold obtained after administering test compound)−(reaction threshold obtained before administering test compound).

In experiment [2] the target is human SCN9A (Nav 1.7) (Homo sapiens, UniProt Q15858). The experiment in a line: Measurement of Na ion current (Nav 1.7) by automated patch clamp assay in cells stably-expressing human SCN9A. It counts as cell-based. The settings on record: compound concentration 10 μmol/L; holding potential inactivating 50% Nav 1.7 channel (around −60 mV); read-out: Inhibitory rate (%) of Na ion current. An outline of the steps:
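Tetracycline-inducible cells stably expressing human SCN9A were recorded by automated patch clamp at room temperature. Inhibition rate derived from peak Na current evoked by depolarizing pulse, compared with and without test compound.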
For orientation: Patch clamp records ionic current or voltage across a cell membrane.

Chain of human SCN9A (Nav 1.7) (Q15858 whole entry): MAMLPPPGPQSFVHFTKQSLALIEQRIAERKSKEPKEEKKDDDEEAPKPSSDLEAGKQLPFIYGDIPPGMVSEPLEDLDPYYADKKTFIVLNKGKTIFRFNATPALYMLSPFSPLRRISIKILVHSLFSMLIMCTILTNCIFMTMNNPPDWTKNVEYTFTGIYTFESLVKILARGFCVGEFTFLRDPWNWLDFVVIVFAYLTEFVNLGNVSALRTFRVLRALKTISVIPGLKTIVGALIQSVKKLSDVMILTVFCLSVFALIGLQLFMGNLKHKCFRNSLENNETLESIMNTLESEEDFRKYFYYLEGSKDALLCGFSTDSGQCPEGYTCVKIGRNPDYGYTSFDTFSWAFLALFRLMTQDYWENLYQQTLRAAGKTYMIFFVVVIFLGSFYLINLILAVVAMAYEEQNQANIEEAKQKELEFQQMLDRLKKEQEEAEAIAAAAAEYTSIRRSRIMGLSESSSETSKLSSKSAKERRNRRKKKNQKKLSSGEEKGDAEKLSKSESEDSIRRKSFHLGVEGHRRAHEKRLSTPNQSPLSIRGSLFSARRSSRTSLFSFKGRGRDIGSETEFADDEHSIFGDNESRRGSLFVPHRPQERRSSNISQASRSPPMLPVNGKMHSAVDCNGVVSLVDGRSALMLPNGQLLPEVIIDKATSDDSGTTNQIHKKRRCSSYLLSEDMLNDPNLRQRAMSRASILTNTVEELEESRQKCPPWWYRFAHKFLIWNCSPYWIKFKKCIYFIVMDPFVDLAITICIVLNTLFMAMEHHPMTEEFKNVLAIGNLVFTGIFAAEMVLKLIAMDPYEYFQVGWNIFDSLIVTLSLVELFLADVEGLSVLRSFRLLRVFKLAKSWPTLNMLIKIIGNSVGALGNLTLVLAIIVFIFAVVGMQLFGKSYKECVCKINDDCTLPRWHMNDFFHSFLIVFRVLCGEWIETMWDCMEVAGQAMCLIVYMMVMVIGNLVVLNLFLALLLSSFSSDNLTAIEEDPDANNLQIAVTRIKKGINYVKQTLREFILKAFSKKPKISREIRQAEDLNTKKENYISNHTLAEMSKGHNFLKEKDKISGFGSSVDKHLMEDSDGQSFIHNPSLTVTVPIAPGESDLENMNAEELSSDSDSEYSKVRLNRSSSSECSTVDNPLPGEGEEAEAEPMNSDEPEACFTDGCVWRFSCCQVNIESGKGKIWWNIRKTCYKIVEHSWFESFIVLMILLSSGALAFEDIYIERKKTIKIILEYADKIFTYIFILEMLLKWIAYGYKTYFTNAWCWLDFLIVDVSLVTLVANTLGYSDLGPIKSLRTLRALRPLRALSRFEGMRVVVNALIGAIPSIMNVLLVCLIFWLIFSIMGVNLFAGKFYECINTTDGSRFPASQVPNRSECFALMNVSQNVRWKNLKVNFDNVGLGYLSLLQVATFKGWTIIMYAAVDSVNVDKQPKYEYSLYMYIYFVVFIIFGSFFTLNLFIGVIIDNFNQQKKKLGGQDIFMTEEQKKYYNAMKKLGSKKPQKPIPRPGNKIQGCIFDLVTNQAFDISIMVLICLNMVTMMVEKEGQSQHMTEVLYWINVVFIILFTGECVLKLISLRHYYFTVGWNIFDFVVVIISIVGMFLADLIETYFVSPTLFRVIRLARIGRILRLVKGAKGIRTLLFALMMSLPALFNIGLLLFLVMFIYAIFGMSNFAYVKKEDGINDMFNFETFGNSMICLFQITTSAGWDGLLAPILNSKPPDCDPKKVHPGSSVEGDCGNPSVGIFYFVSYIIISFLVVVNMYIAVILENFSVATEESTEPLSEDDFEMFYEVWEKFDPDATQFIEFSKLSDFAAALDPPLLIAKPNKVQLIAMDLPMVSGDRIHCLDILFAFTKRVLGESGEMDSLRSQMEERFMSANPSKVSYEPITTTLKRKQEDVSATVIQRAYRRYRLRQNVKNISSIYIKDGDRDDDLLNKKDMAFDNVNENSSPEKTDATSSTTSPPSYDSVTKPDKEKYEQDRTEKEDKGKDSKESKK

Regarding `CC(C)(O)Cn1cnc2cc(-c3ccc(OC(F)(F)F)cc3)ccc21` [Example 179, 2-methyl-1-{5-[4-(trifluoromethoxy)phenyl]-1H-benzimidazol-1-yl}propan-2-ol], the “extension width (g) of reaction thresholds (50% paw withdrawal threshold after minus before administering test compound)” value in experiment [1] is 6.5 g. Moreover, the inhibition at 10 µM in experiment [2] stood at 61%.

As to `CC(C)(O)Cn1cnc2cc(-c3ccc(C(F)(F)F)cc3F)ccc21` [Example 181, 1-{5-[2-fluoro-4-(trifluoromethyl)phenyl]-1H-benzimidazol-1-yl}-2-methylpropan-2-ol], the “extension width (g) of reaction thresholds (50% paw withdrawal threshold after minus before administering test compound)” value in experiment [1] is given as 2.5 g. For the same compound, in experiment [2], the inhibition at 10 µM came out at 45%.

In the case of `COc1cc(C(F)(F)F)ccc1-c1ccc2c(c1)ncn2CC1(O)COC1` [Example 205, 3-({5-[2-methoxy-4-(trifluoromethyl)phenyl]-1H-benzimidazol-1-yl}methyl)oxetan-3-ol], in experiment [1], the “extension width (g) of reaction thresholds (50% paw withdrawal threshold after minus before administering test compound)” value stood at 1.6 g. In addition, the inhibition at 10 µM in experiment [2] was 46%.

In the case of `C[C@H](n1cnc2ccc(Oc3ccc(C(F)(F)F)cn3)cc21)C(C)(C)O` [Example 229, (3S)-2-methyl-3-(6-{[5-(trifluoromethyl)pyridin-2-yl]oxy}-1H-benzimidazol-1-yl)butan-2-ol], the “extension width (g) of reaction thresholds (50% paw withdrawal threshold after minus before administering test compound)” value in experiment [1] is listed as 3.9 g. Besides, the inhibition at 10 µM in experiment [2] was determined as 32%.
